Data reported in PubChem BioAssay (NCI).
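Dose response: 5 concentrations. Exposure: 48 h. Format: 96-well plates. Endpoint: linear interpolation; highest concentration if not reached. Definition used: TGI = concentration required for complete inhibition of growth.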

Assays:
Assay in all cases: NCI-60 cell line screen, 48 h
UACC-62 melanoma = tested on: UACC-62 melanoma
MALME-3M melanoma = tested on: MALME-3M melanoma
SNB-19 CNS = tested on: SNB-19 CNS
SF-539 CNS = tested on: SF-539 CNS
SN12C renal = tested on: SN12C renal
786-0 renal = tested on: 786-0 renal
SK-MEL-28 melanoma = tested on: SK-MEL-28 melanoma
OVCAR-8 ovarian = tested on: OVCAR-8 ovarian
T-47D breast = tested on: T-47D breast
UO-31 renal = tested on: UO-31 renal
OVCAR-5 ovarian = tested on: OVCAR-5 ovarian
HOP-62 NSCLC = tested on: HOP-62 NSCLC
SNB-75 CNS = tested on: SNB-75 CNS
SR leukemia = tested on: SR leukemia
HS 578T breast = tested on: HS 578T breast
MDA-N = tested on: MDA-N
SK-MEL-5 melanoma = tested on: SK-MEL-5 melanoma
A549 NSCLC = tested on: A549 NSCLC
NCI-H226 lung = tested on: NCI-H226 lung
CCRF-CEM leukemia = tested on: CCRF-CEM leukemia
PC-3 prostate = tested on: PC-3 prostate
HT29 colon = tested on: HT29 colon
COLO 205 colon = tested on: COLO 205 colon
HCT-15 colon = tested on: HCT-15 colon
A498 renal = tested on: A498 renal
U251 CNS = tested on: U251 CNS
MCF7 breast = tested on: MCF7 breast
MOLT-4 leukemia = tested on: MOLT-4 leukemia
SK-MEL-2 melanoma = tested on: SK-MEL-2 melanoma
IGROV1 ovarian = tested on: IGROV1 ovarian
UACC-257 melanoma = tested on: UACC-257 melanoma
NCI-H460 lung = tested on: NCI-H460 lung
RXF 393 renal = tested on: RXF 393 renal
SW-620 colon = tested on: SW-620 colon
NCI/ADR-RES ovarian = tested on: NCI/ADR-RES ovarian
K-562 leukemia = tested on: K-562 leukemia
LOX IMVI melanoma = tested on: LOX IMVI melanoma
TK-10 renal = tested on: TK-10 renal
M14 melanoma = tested on: M14 melanoma
HL-60(TB) leukemia = tested on: HL-60(TB) leukemia
MDA-MB-231 breast = tested on: MDA-MB-231 breast
NCI-H23 lung = tested on: NCI-H23 lung
NCI-H522 lung = tested on: NCI-H522 lung
HCC-2998 colon = tested on: HCC-2998 colon
OVCAR-3 ovarian = tested on: OVCAR-3 ovarian
DU-145 prostate = tested on: DU-145 prostate
KM12 colon = tested on: KM12 colon
SF-268 CNS = tested on: SF-268 CNS
HCT-116 colon = tested on: HCT-116 colon
MDA-MB-435 = tested on: MDA-MB-435
ACHN renal = tested on: ACHN renal
SF-295 CNS = tested on: SF-295 CNS
BT-549 breast = tested on: BT-549 breast
RPMI-8226 leukemia = tested on: RPMI-8226 leukemia
HOP-92 NSCLC = tested on: HOP-92 NSCLC
CAKI-1 renal = tested on: CAKI-1 renal
SK-OV-3 ovarian = tested on: SK-OV-3 ovarian
OVCAR-4 ovarian = tested on: OVCAR-4 ovarian
EKVX NSCLC = tested on: EKVX NSCLC

COc1ccc(C2C(C#N)=C(S)N(C3OC(CO)C(O)C(O)C3O)C(c3ccccc3)=C2C(C)=O)cc1 (stereo not given)
TGI (UACC-62 melanoma): > 100 µM
TGI (MALME-3M melanoma): > 100 µM
TGI (SNB-19 CNS): > 100 µM
TGI (SF-539 CNS): > 100 µM
TGI (SN12C renal): > 100 µM
TGI (786-0 renal): > 100 µM
TGI (SK-MEL-28 melanoma): > 100 µM
TGI (OVCAR-8 ovarian): > 100 µM
TGI (T-47D breast): 69.9 µM
TGI (UO-31 renal): > 100 µM
TGI (OVCAR-5 ovarian): > 100 µM
TGI (HOP-62 NSCLC): > 100 µM
TGI (SNB-75 CNS): 97 µM
TGI (SR leukemia): > 100 µM
TGI (HS 578T breast): > 100 µM
TGI (MDA-N): > 100 µM
TGI (SK-MEL-5 melanoma): 60.7 µM
TGI (A549 NSCLC): > 100 µM
TGI (NCI-H226 lung): > 100 µM
TGI (CCRF-CEM leukemia): > 100 µM
TGI (PC-3 prostate): > 100 µM
TGI (HT29 colon): > 100 µM
TGI (COLO 205 colon): > 100 µM
TGI (HCT-15 colon): > 100 µM
TGI (A498 renal): > 100 µM
TGI (U251 CNS): > 100 µM
TGI (MCF7 breast): > 100 µM
TGI (MOLT-4 leukemia): > 100 µM
TGI (SK-MEL-2 melanoma): > 100 µM
TGI (IGROV1 ovarian): > 100 µM
TGI (UACC-257 melanoma): > 100 µM
TGI (NCI-H460 lung): > 100 µM
TGI (RXF 393 renal): > 100 µM
TGI (SW-620 colon): > 100 µM
TGI (NCI/ADR-RES ovarian): > 100 µM
TGI (K-562 leukemia): > 100 µM
TGI (LOX IMVI melanoma): > 100 µM
TGI (TK-10 renal): > 100 µM
TGI (M14 melanoma): > 100 µM
TGI (HL-60(TB) leukemia): > 100 µM
TGI (MDA-MB-231 breast): > 100 µM
TGI (NCI-H23 lung): > 100 µM
TGI (NCI-H522 lung): 88.9 µM
TGI (HCC-2998 colon): > 100 µM
TGI (OVCAR-3 ovarian): > 100 µM
TGI (DU-145 prostate): > 100 µM
TGI (KM12 colon): > 100 µM
TGI (SF-268 CNS): > 100 µM
TGI (HCT-116 colon): > 100 µM
TGI (MDA-MB-435): > 100 µM
TGI (ACHN renal): > 100 µM
TGI (SF-295 CNS): > 100 µM
TGI (BT-549 breast): > 100 µM
TGI (RPMI-8226 leukemia): > 100 µM
TGI (HOP-92 NSCLC): > 100 µM

COc1cc(C2S/C(=C/c3ccccc3)C(=O)N2c2ccc(Cl)c(Cl)c2)cc(OC)c1OC (stereo not given)
TGI (CAKI-1 renal): > 100 µM
TGI (MALME-3M melanoma): > 100 µM
TGI (SNB-19 CNS): > 100 µM
TGI (SK-OV-3 ovarian): > 100 µM
TGI (SN12C renal): > 100 µM
TGI (786-0 renal): > 100 µM
TGI (SK-MEL-28 melanoma): > 100 µM
TGI (OVCAR-8 ovarian): > 100 µM
TGI (T-47D breast): > 100 µM
TGI (UO-31 renal): > 100 µM
TGI (OVCAR-5 ovarian): > 100 µM
TGI (HOP-62 NSCLC): > 100 µM
TGI (SR leukemia): > 100 µM
TGI (HS 578T breast): > 91.5 µM
TGI (MDA-N): > 84.9 µM
TGI (SK-MEL-5 melanoma): > 100 µM
TGI (A549 NSCLC): > 100 µM
TGI (NCI-H226 lung): > 100 µM
TGI (CCRF-CEM leukemia): > 100 µM
TGI (PC-3 prostate): > 100 µM
TGI (HT29 colon): > 100 µM
TGI (COLO 205 colon): > 100 µM
TGI (HCT-15 colon): > 100 µM
TGI (A498 renal): > 82.4 µM
TGI (U251 CNS): > 100 µM
TGI (MCF7 breast): > 87.7 µM
TGI (MOLT-4 leukemia): > 100 µM
TGI (SK-MEL-2 melanoma): > 59.6 µM
TGI (OVCAR-4 ovarian): > 100 µM
TGI (IGROV1 ovarian): > 100 µM
TGI (UACC-257 melanoma): > 100 µM
TGI (NCI-H460 lung): > 100 µM
TGI (RXF 393 renal): > 100 µM
TGI (EKVX NSCLC): > 100 µM
TGI (SW-620 colon): > 100 µM
TGI (NCI/ADR-RES ovarian): > 100 µM
TGI (K-562 leukemia): > 100 µM
TGI (LOX IMVI melanoma): > 100 µM
TGI (TK-10 renal): > 100 µM
TGI (M14 melanoma): > 100 µM
TGI (HL-60(TB) leukemia): > 100 µM
TGI (MDA-MB-231 breast): > 100 µM
TGI (NCI-H23 lung): > 100 µM
TGI (NCI-H522 lung): 51.4 µM
TGI (HCC-2998 colon): > 100 µM
TGI (OVCAR-3 ovarian): > 100 µM
TGI (DU-145 prostate): > 100 µM
TGI (KM12 colon): > 70.3 µM
TGI (SF-268 CNS): > 100 µM
TGI (HCT-116 colon): > 78.9 µM
TGI (MDA-MB-435): > 90.4 µM
TGI (ACHN renal): > 100 µM
TGI (SF-295 CNS): > 100 µM
TGI (BT-549 breast): > 100 µM
TGI (RPMI-8226 leukemia): > 100 µM
TGI (HOP-92 NSCLC): > 84.2 µM

NC(N)=NS(=O)(=O)c1ccc(NC(=O)c2ccc3nc4ccccc4c(Nc4ccc(S(N)(=O)=O)cc4)c3c2)cc1
TGI (UACC-62 melanoma): > 100 µM
TGI (CAKI-1 renal): > 100 µM
TGI (MALME-3M melanoma): > 100 µM
TGI (SNB-19 CNS): > 100 µM
TGI (SK-OV-3 ovarian): > 100 µM
TGI (SF-539 CNS): > 100 µM
TGI (SN12C renal): > 100 µM
TGI (786-0 renal): > 100 µM
TGI (SK-MEL-28 melanoma): > 100 µM
TGI (OVCAR-8 ovarian): > 100 µM
TGI (T-47D breast): > 100 µM
TGI (UO-31 renal): > 100 µM
TGI (OVCAR-5 ovarian): > 100 µM
TGI (HOP-62 NSCLC): > 100 µM
TGI (SNB-75 CNS): > 100 µM
TGI (SR leukemia): > 100 µM
TGI (HS 578T breast): > 100 µM
TGI (MDA-N): > 100 µM
TGI (SK-MEL-5 melanoma): > 100 µM
TGI (A549 NSCLC): > 100 µM
TGI (NCI-H226 lung): > 100 µM
TGI (CCRF-CEM leukemia): > 100 µM
TGI (PC-3 prostate): > 100 µM
TGI (HT29 colon): > 100 µM
TGI (COLO 205 colon): > 100 µM
TGI (HCT-15 colon): > 100 µM
TGI (A498 renal): > 100 µM
TGI (U251 CNS): > 100 µM
TGI (MCF7 breast): > 100 µM
TGI (MOLT-4 leukemia): > 100 µM
TGI (SK-MEL-2 melanoma): > 100 µM
TGI (OVCAR-4 ovarian): > 100 µM
TGI (IGROV1 ovarian): > 100 µM
TGI (UACC-257 melanoma): > 100 µM
TGI (NCI-H460 lung): > 100 µM
TGI (RXF 393 renal): > 100 µM
TGI (EKVX NSCLC): > 100 µM
TGI (SW-620 colon): > 100 µM
TGI (NCI/ADR-RES ovarian): > 100 µM
TGI (K-562 leukemia): > 100 µM
TGI (LOX IMVI melanoma): > 100 µM
TGI (TK-10 renal): > 100 µM
TGI (M14 melanoma): > 100 µM
TGI (HL-60(TB) leukemia): > 100 µM
TGI (MDA-MB-231 breast): > 100 µM
TGI (NCI-H23 lung): > 100 µM
TGI (NCI-H522 lung): > 100 µM
TGI (HCC-2998 colon): > 100 µM
TGI (OVCAR-3 ovarian): > 100 µM
TGI (DU-145 prostate): > 100 µM
TGI (KM12 colon): > 100 µM
TGI (SF-268 CNS): > 100 µM
TGI (HCT-116 colon): > 100 µM
TGI (MDA-MB-435): > 100 µM
TGI (ACHN renal): > 100 µM
TGI (SF-295 CNS): > 100 µM
TGI (BT-549 breast): > 100 µM
TGI (RPMI-8226 leukemia): > 100 µM
TGI (HOP-92 NSCLC): > 100 µM
